How the values were obtained:
[1] = tested on: fasted normal rats (Male Sprague-Dawley); assay: blood glucose depression and serum insulin profiles after subcutaneous injection; format: in vivo, rat
Protocol: Subcutaneous injections of insulin-polymer conjugates or insulin controls are administered at a dose between 1 and 10 equivalent U insulin/kg body weight behind the neck of fasted normal […] rats (Male Sprague-Dawley, 200-250 g, n=2-4). Blood samples are collected via tail vein bleeding at −15 and 0 minutes, and at 15, 30, 45, 60, 90, 120, 180, 240, 300 and 360 minutes after injection. Blood glucose values are measured using commercially available test strips (Precision Xtra, Abbott Laboratories, Abbott Park, Ill.). The remaining blood is centrifuged to obtain serum and stored in a freezer until measured for serum insulin levels. Serum insulin is measured using an ELISA kit (ALPCO Diagnostics, Windham, N.H.). Pharmacodynamic (PD) parameters such as time to reach minimum blood glucose concentration (Tnadir) and duration over which the blood glucose level remains below 70% of initial value (T70% BGL), are determined according to published methods for subcutaneous delivery. Pharmacokinetic (PK) parameters such as time to reach maximum serum insulin concentration (Tmax), mean insulin residence time (MRT), and mean insulin absorption time (MAT), are determined according to published methods for subcutaneous delivery using commercially available ELISA assays (ALPCO Diagnostics, Windham, N.H.). The blood glucose depression curve and corresponding serum insulin profile for each formulation may then be compared to those obtained for an insulin control to determine any differences in the timing and extent of the insulin action.
The in vivo digestion behavior of the insulin-glycogen conjugate was assessed via subcutaneous injection (alone without a glucose-binding molecule such as Con A) into normal male SD rats.
Subcutaneous injections of insulin-dextran were administered using 0.25 ml of a sterilized 1×PBS solution (0.88 equivalent mg insulin/[…]) behind the neck of two fasted normal rat groups (Male Sprague-Dawley, 200-250 g, n=4). Measurements of glucose and insulin values from tail vein blood samples were performed at −15 and 0 minutes, and at 15, 30, 45, 60, 90, 120, 180, 240, 300 and 360 minutes after injection.

human salivary amylase = biological target: T1, human salivary amylase (Homo sapiens, UniProt P0DUB6); assay: in vitro amylase digestion assay of insulin-glycogen (SDS-PAGE); format: in vitro ADME; details: SDS-PAGE after incubation with amylase
T1 construct: from tissue; host or cells: human saliva (whole, diluted in 1x PBS)
T1 sequence (P0DUB6 16-511): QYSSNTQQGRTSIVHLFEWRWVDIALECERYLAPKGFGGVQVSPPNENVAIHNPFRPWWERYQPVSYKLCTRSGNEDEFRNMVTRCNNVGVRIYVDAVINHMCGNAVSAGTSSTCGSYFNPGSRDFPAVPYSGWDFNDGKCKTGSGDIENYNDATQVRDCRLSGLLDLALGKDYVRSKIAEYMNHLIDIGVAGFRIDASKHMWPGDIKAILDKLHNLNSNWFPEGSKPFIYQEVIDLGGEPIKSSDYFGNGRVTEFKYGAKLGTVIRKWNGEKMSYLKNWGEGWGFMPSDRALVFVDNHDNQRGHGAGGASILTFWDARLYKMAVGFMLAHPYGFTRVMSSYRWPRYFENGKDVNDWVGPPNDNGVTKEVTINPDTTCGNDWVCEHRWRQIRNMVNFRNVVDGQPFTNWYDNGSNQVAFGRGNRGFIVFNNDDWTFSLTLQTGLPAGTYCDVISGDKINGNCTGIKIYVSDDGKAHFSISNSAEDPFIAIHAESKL
Protocol: As previously discussed, once an insulin-glycogen conjugate is released from an inventive glucose-responsive material, it is digested by amylases that breakdown the large molecular weight insulin-glycogen conjugate into low molecular weight conjugates in vivo. […] An in vitro amylase digestion assay was performed to qualify the proposed insulin-glycogen degradation mechanism. […] The saliva sample was serially diluted 1:2 in 1×PBS buffer to 1:512.90 μL aliquots of each of the 1:4, 1:16, 1:64, 1:128, 1:256, and 1:512 dilutions were added to pre-prepared microcentrifuge tubes containing 90 μL of undiluted insulin-glycogen. […] The gels were run in SDS running buffer for 45 minutes to an hour at a constant voltage of 150 V. Under these conditions, the amylase completely digested the insulin-glycogen conjugate into native MW insulin at the 1:16 dilution level as quantified by the relative band density of high MW conjugate to that of native MW insulin.
SDS-PAGE has confirmed that the insulin-glycogen conjugate is essentially free from unconjugated insulin (FIG. 5a). […] Serum was collected from the other catheter as a function of time and analyzed for fluorescence (fmax, Molecular Devices, Sunnyvale, Calif.) to determine glycogen absorption rate and insulin levels (RIA, Joslin Diabetes Center).

non-diabetic felines = assay: euglycemic clamp protocol in non-diabetic felines; format: in vivo, feline; details: 0.5 U/kg conjugate (FIG. 6)
[2] = tested on: normal and STZ-diabetic rats; assay: disappearance of fluorescently labeled gel components from the injection site; format: in vivo, rat; details: gel injected under the skin
Source text: The inventive gel of Example 21, has viscosity characteristics that allow easy loading and injection through a standard 27½G insulin syringe obviating the need for invasive surgery. […] This is necessary to avoid unwanted material accumulation after repeated daily dosing. To illustrate this point, gels were synthesized from (i) fluorescently-labeled insulin-glycogen conjugate (FITC-conjugate)/unlabeled Con A and (ii) unlabeled insulin-glycogen conjugate/fluorescently-labeled Con A (FITC-Con A) in the presence of India ink (SpeedBall® Superblack) and injected under the skin of both normal and STZ-diabetic rats on Days 2, 1, and 0 in order to simultaneously observe the injection site post-mortem and monitor the rate of disappearance of each of the components by fluorescence imaging.
Taken together, not only is the insulin-glycogen conjugate removed completely from the injection site, its rate of disappearance is dependent on the glycemic state of the animal (i.e. hyperglycemia leads to more rapid elimination of material from the site).

[3] = s.c. 0.25 ml, fasted normal male SD rats
[4] = FIG. 4b, s.c. 2.5 U of conjugated insulin/kg, male SD rats
[5] = s.c. injection alone, normal male SD rats

Substance | time serum glucose levels remain depressed post injection [1, 3] | time to reach the glucose nadir (Tnadir) [1, 3] | time to return to within 70% of fasting glucose levels (T70% BGL) [1, 3] | degradation by amylases (human salivary amylase) | T70% BGL [1, 4] | Tnadir (blood glucose) [1, 4] | time to reach glucose nadir (Tnadir) [1, 5] | time to return to within 70% of fasting glucose levels (T70% BGL) [1, 5] | speed of insulin action compared with unconjugated insulin ([1]; s.c., normal male SD rats) | conjugate bioactivity in euglycemic clamp (non-diabetic felines) | elimination from the injection site (fluorescence imaging) ([2]; STZ-diabetic rats) | elimination from the injection site (fluorescence imaging) ([2]; normal rats)
insulin-dextran: human recombinant insulin coupled to dextran (MW=70K) by CNBr; comparative conjugate [reference compound] | at least five | about 3 h | greater than 2.5 hours | – | – | – | – | – | – | – | – | –
insulin-glycogen conjugate: human recombinant insulin covalently linked to glycogen by CNBr or CDAP coupling; glycogen source differs between examples | – | – | – | rapidly degraded by amylases in vitro and in vivo | ~150 min | 30 to 45 min | 30 to 45 min | less than 180 minutes | acts just as rapidly as unconjugated insulin in vivo | confirmed the conjugate bioactivity | completely eliminated from the injection site in STZ-diabetic rats both one and two days after injection | still remained at the injection site after one day

— patent US8697643B2, “Method for controllably releasing a drug conjugate within subcutaneous tissue in response to the local concentration of an indicator” (priority 2005, dated 2014)
